PubChem BioAssay AID1645866 (Buhrlage Lab, Dana-Farber Cancer Institute and Novartis …, 2021)
Active and inactive are the calls of the source.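 The calls were made as follows: active = in confirmatory dose-response testing, peak deubiquitinase inhibition of 30% or more; inactive = the rest.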

molecular target: Ubiquitin carboxyl-terminal hydrolase 28 (Homo sapiens) (UniProt Q96RU2); test: Ubiquitin-specific peptidase 28 DUB inhibitors, biochemical concentration-dependence assay, validation of primary screening hits (AID 1645866); conditions: purified USP28, ubiquitin-rhodamine fluorescence, 30 min
Sequence (Q96RU2 whole entry, looked up): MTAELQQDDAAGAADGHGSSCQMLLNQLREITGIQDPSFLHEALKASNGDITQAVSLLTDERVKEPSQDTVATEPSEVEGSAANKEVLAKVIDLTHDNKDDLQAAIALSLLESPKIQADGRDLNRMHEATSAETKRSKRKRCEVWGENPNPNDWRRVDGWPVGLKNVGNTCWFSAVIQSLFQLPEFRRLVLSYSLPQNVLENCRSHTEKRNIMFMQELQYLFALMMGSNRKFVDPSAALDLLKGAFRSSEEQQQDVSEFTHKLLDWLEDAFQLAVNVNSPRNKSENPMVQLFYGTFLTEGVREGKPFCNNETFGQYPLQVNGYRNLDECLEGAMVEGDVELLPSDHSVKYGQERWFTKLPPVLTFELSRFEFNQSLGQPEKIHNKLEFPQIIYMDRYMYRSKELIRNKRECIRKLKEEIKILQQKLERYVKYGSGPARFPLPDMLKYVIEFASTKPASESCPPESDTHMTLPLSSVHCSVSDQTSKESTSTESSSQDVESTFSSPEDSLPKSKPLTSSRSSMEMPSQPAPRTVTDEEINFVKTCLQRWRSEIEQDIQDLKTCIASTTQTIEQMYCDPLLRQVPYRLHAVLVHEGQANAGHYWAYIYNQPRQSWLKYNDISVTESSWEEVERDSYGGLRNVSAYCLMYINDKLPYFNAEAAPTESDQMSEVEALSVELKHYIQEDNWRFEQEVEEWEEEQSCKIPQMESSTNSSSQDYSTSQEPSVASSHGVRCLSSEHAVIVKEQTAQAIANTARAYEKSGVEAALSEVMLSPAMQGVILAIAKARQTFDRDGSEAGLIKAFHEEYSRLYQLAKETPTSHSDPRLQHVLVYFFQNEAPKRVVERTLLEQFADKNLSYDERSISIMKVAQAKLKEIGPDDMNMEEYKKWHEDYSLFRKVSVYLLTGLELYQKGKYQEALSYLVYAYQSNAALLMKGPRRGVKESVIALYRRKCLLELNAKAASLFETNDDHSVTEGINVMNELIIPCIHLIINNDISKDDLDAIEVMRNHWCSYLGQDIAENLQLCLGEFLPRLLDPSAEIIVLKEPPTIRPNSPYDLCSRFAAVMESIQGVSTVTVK

| SMILES | IC50 |
| --- | --- |
| COc1ccc(S(=O)(=O)Nc2ccc(Nc3ccc(-n4cccn4)nn3)cc2)cc1 | 41 µM |
| CCc1ccccc1NC(=O)COc1ccccc1-c1nnc(-c2ccccc2)o1 | 23.5 µM |
| COc1ccc(-c2cc(-c3ccc(F)cc3)[nH]c(=O)c2C#N)cc1 | 21.8 µM |
| Cc1nc(SCC#N)c2oc3ccccc3c2n1 | 40 µM |
| O=C(COc1ccc(F)cc1)Nc1cnc(-c2ccc(Cl)cc2)nc1 | 34.2 µM |
| Cc1ccc(Cn2nnc(C(=O)NCc3ccco3)c2-n2cccc2)cc1 | 6.49 µM |
| CC1(C)Cc2c(c(-c3ccco3)nc3sc4c(SCCCc5ccccc5)ncnc4c23)CO1 | 34.9 µM |
| Cc1ccc(C2c3c(-c4ccccc4O)n[nH]c3C(=O)N2Cc2ccco2)cc1 (stereo unspecified) | 20 µM |
| CN1CCN(C(=O)c2cc(-c3ccn(-c4ccccc4)n3)n3ccccc23)CC1 | > 50 µM (inactive) |
| COC(=O)c1sc2ccccc2c1NC(=O)c1ccc(Br)s1 | 15.8 µM |
| COc1cccc(N2CCN(C(=O)C3CCN(c4nc(NC(C)=O)ns4)CC3)CC2)c1 | > 50 µM (inactive) |
| Cc1sc(-c2cccnc2)nc1OC(=O)c1ccc(Cl)c(Cl)c1 | > 50 µM (inactive) |
| N#Cc1ccc(Cn2nnc(-c3cccc(Cl)c3)n2)cc1 | 8.66 µM |
| COc1ccc(/C=C/C(=O)Nc2ccc3c(c2)OCCO3)cc1Br | 1.34 µM |
| O=C(NC1CCS(=O)(=O)C1)c1ccc(N2CCC(Cc3ccccc3)CC2)nn1 (stereo unspecified) | > 50 µM (inactive) |
| CC(C)(C)C(=O)Nc1ccc(C(=O)Nc2cccc(-c3nnc(-c4ccccc4)o3)c2)cc1 | 4.78 µM |
| COc1cccc(C(=O)NCC(=O)Nc2nc3ccccc3[nH]2)c1 | 43.8 µM |
| O=C(Nc1ccc(NS(=O)(=O)c2ccc3c4c(cccc24)CC3)cc1)c1ccccc1 | 37.7 µM |
| CC(C)NS(=O)(=O)c1ccc(CCC(=O)Nc2ccc3c(c2)OCCO3)cc1 | 1.13 µM |
| Cc1ccc(CN2C(=O)c3cc4ccccc4n3CC2(C)C(=O)NCc2ccccc2)o1 (stereo unspecified) | 44.6 µM |
| N#Cc1c(-c2cccs2)cc(-c2cccs2)[nH]c1=O | > 50 µM (inactive) |
| CCN1CCCC1CN(Cc1cc2cc(OC)ccc2[nH]c1=O)C(=O)NCc1ccccc1 (stereo unspecified) | > 50 µM (inactive) |
| CCc1ccc2c(c1)[C@]1(C(=O)N2)[C@@H]2C(=O)N(c3ccc(Cl)cc3Cl)C(=O)[C@@H]2[C@@H]2CCCN21 | > 50 µM (inactive) |
| O=C1c2c(O)cccc2C2(Oc3cccc4cccc(c34)O2)C2OC12 (stereo unspecified) | 20.1 µM |

| SMILES | IC50 |
| --- | --- |
| CCOc1ccc(NS(=O)(=O)c2ccc(NC(=O)Nc3ccccc3)cc2)cc1 | 16 µM |
| CC1CCc2c(sc3ncnc(NC4CCN(CC(N)=O)CC4)c23)C1 (stereo unspecified) | > 50 µM (inactive) |
| COc1cc(Cl)ccc1C(=O)Nc1cccc(-n2cnnn2)c1C | 11.2 µM |
| COc1ccc(C)cc1NC(=O)C(NS(=O)(=O)c1ccc2c(c1)CCN2C(C)=O)C(C)C (stereo unspecified) | > 50 µM (inactive) |
| O=C(Nc1ccc2c(c1)OCO2)c1[nH]nc2c1CCc1ccccc1-2 | 8.02 µM |
| CC(c1ccccc1)c1nc(-c2ccc(=O)[nH]c2)no1 (stereo unspecified) | 3.78 µM |
| Cc1ccc(NC(=O)c2cc(=O)n(C)c3c2c(=O)n(C)c(=O)n3C)c(C)c1 | > 50 µM (inactive) |
| C[C@]12C(=O)N(c3ccc(C(=O)NCc4ccc(F)cc4)cc3)C(=O)N1CCc1c2[nH]c2ccccc12 | 40.6 µM |
| CCOc1cc(C2C3=C(CC(C)(C)CC3=O)Nc3onc(C)c32)ccc1O (stereo unspecified) | 37.5 µM |
| CC1OC2CC(O)C1(O)C1=C2C(=O)c2c(O)c3c(c(O)c2C1=O)[C@H](C)O[C@H]1CC(=O)O[C@@H]31 (stereo partly specified) | > 50 µM (inactive) |
| COc1cc(NC(=O)Cc2ccccc2)ccc1NC(=O)c1cc2ccccc2o1 | 3.01 µM |
| COc1ccc(OC)c(-c2cc(C(=O)Nc3c(C)nn(Cc4ccccc4)c3C)no2)c1 | 1.83 µM |
| COC1=CC(=O)c2c(O)c3c(c(C)c2C1=O)C[C@@]1(O)[C@H](O[C@H]2CC[C@H](O[C@H]4C[C@@](C)(O)[C@H](OC(=O)c5c(C)ccc(C)c5O)[C@H](C)O4)[C@@H](C)O2)C(=O)C(C(C)=O)=C(O)[C@@]1(O)C3=O | 2.27 µM |
| COc1ccc(CN2CCCC23CCCN(C(=O)CCc2cccnc2)C3)cc1F (stereo unspecified) | 26.4 µM |
| O=c1c2cnc(N3CCCCC3)nc2ccn1CCc1ccccc1 | 5.5 µM |
| CCc1ccc(NC(=O)Cc2nnc3cc(-c4nc(C)no4)ccn23)cc1 | 4.07 µM |
| COc1ccc(C2CC(=O)Nc3ccc4ccccc4c32)c(OC)c1OC (stereo unspecified) | 47.8 µM |
| CCOc1ccc(-c2nc(C#N)c(N3CCN(C(=O)c4ccccc4C)CC3)o2)cc1 | 12 µM |
| Cn1nc(-c2nc(-c3ccccc3)no2)c2c1CCN(C(=O)C1CCCC1)C2 | 24.1 µM |
| O=C1C[C@@H]2O[C@H](CNC(=O)[C@@H]3CN(CCN3C(=O)C3CCOCC3)C(=O)[C@@H]3C[C@@H](CN3Cc3ccc(F)c(F)c3)N1)[C@@H](O)[C@H]2O | > 50 µM (inactive) |
| CC(C)(C)c1ccc(C(=O)Nc2ccc(Cn3cncn3)cc2)cc1 | 28 µM |
| COc1ccc(NC(=O)CC(=O)c2ccc([N+](=O)[O-])cc2)cc1S(=O)(=O)Nc1ccc(Cl)cc1 | 33.3 µM |
| Cc1ccc2c(=O)c(C(=O)Nc3ccccc3)cn(CC(=O)NC3CCCCC3)c2n1 | > 50 µM (inactive) |
| O=C(O)C1CCN(Cc2c(-c3ccco3)nc3ccc(Cl)cn23)CC1 | > 50 µM (inactive) |

| SMILES | IC50 |
| --- | --- |
| COc1cc(OC)cc(C(=O)Nc2cnc(-c3ccccc3)nc2)c1 | > 50 µM (inactive) |
| CC1=C(C)C(N(c2ccccc2)c2ccccc2)N(CCC(C)C)C1=O (stereo unspecified) | 24.9 µM |
| Cc1cccc(-c2nc3n(CC(=O)Nc4ccc(Cl)cc4)c(C)cc(=O)n3n2)c1 | 0.985 µM |
| COc1ccc(CCNC(=O)CCn2c(=O)c3ccccc3n(Cc3ccc(C)cc3)c2=O)cc1OC | 22 µM |
| COc1cnc(-c2ccccn2)nc1Sc1ccc(C)cc1 | > 50 µM (inactive) |
| O=C(OCc1ccc(F)cc1)c1ccc2ccccc2n1 | 2.55 µM |
| CCOC(=O)c1sc2c(c1C)c(=O)n(Cc1ccccc1)c(=O)n2CC(N)=O | 22.2 µM |
| CC(C(=O)NCc1ccc(F)cc1)n1cccc1C(=O)c1ccccc1 (stereo unspecified) | > 50 µM (inactive) |
| O=C1Nc2ccccc2C(=O)C1C(c1ccc(Cl)cc1)C1C(=O)Nc2ccccc2C1=O (stereo unspecified) | 28.6 µM |
| O=C(COC(=O)c1ccc(CN2CCCC2=O)cc1)c1ccc2c(c1)OCCO2 | 0.113 µM |
| CCCCN(C)C(=O)c1cc2c(=O)n3cccc(C)c3nc2n1Cc1ccccc1 | > 50 µM (inactive) |
| COc1ccc(-c2[nH]c3ccccc3c2SCCNC(=O)c2ccc(S(=O)(=O)N3CCOCC3)cc2)cc1 | 30 µM |
| O=C(Nc1ccc2c(c1)OCCO2)c1cc(CN2CCOCC2)on1 | 11.9 µM |
| O=C(c1ccc2occc2c1)N1CCC(S(=O)(=O)c2ccc(-c3ccco3)cc2)CC1 | > 50 µM (inactive) |
| Cc1ccc(C)c(-n2c(N)c(C(=O)NCCc3ccccc3)c3nc4ccccc4nc32)c1 | > 50 µM (inactive) |
| O=C(Nc1ccc(Cl)cc1)Nc1cccn2ncnc12 | 11.9 µM |
| COC1=CC(=O)c2c(O)c(C)c(CC(C)=O)c(O)c2C1=O | > 50 µM (inactive) |
| NS(=O)(=O)c1ccc(CNS(=O)(=O)c2ccc(-c3ccccn3)s2)cc1 | 19.9 µM |
| O=C(Cn1nc2c3c4c(sc3ncn2c1=O)CCCCC4)Nc1ccc(Cl)cc1F | 1.83 µM |
| Nc1ccccc1SC(CC(=O)c1ccc(Cl)cc1)c1ccsc1 (stereo unspecified) | > 50 µM (inactive) |
| CC(C)c1ccc(C(C(=O)NC2CCCCC2)N(C(=O)c2cnccn2)c2cccc(F)c2)cc1 (stereo unspecified) | 23 µM |
| CN1C(=O)COc2ccc(NC(=O)c3cc(-c4ccccc4)on3)cc21 | > 50 µM (inactive) |
| CC1(C)C[C@@H](O)[C@]2(C)CC[C@]3(C)C(=CCC4[C@@]5(C)CC[C@H](O)[C@](C)(CO)[C@@H]5CC[C@]43C)[C@@H]2C1 (stereo partly specified) | > 50 µM (inactive) |
| Cc1cccc(NC(=O)CSc2ccc(-n3cnc(-c4ccccc4)c3)nn2)c1 | 16.5 µM |

| SMILES | IC50 |
| --- | --- |
| c1ccc(-c2nc(-c3nnn(-c4ccccc4)c3-c3ccncc3)no2)cc1 | 12.5 µM |
| COc1ccc(C2/C(=C(\O)c3ccccc3)C(=O)C(=O)N2c2nc3ccc(F)cc3s2)cc1 (stereo unspecified) | 21.6 µM |
| O=C(CC1C(=O)N(Cc2ccccc2)c2nc3ccccc3n21)NCCc1ccccc1 (stereo unspecified) | 15.9 µM |
| COc1ccc(C)cc1NC(=O)COc1ccc2c(c1)OCO2 | 49.6 µM |
| CCCCNc1nc2c(-c3ccccc3)nnn2c2ccccc12 | 6.63 µM |
| CSc1ccc(CNCc2c(C(=O)O)n(Cc3ccccc3)c3cc(C)ccc23)cc1 | > 5 µM (inactive) |
| COc1cccc(NC(=O)Nc2nccn(-c3ccc(F)cc3)c2=O)c1 | 18.3 µM |
| O=C(CCCCn1c(=O)c2ccccc2n(Cc2ccccc2F)c1=O)NCCc1ccccc1 | 15.5 µM |
| Cc1cccc(C(=O)Nc2cccc(SC(C(=O)Nc3ccc(Cl)c(C(=O)O)c3)c3ccccc3)c2)c1 (stereo unspecified) | 15.3 µM |
| CCC(=O)Nc1nc2cc(NC(=O)Nc3cc(C)cc(C)c3)ccc2s1 | 2.97 µM |
| O=C(Nc1cc(Cl)cc(Cl)c1)c1csnn1 | 15.9 µM |
| Cc1ccc2c(c1)[C@]1(C(=O)N2)[C@@H]2C(=O)N(c3cccc(C(F)(F)F)c3)C(=O)[C@@H]2C2CCCN21 (stereo partly specified) | > 50 µM (inactive) |
| Cc1ccc(NCc2cc3c(C(C)(C)C)nn(-c4ccc(Cl)cc4)c3[nH]c2=O)cc1 | 23.6 µM |
| O=C1CC(c2ccco2)Cc2[nH]c(=O)c(-c3nc(-c4ccc(Cl)cc4)cs3)cc21 (stereo unspecified) | > 50 µM (inactive) |
| COc1cccc(NC(=O)CCc2c(C)nn(-c3cc(N4CCCCC4)ncn3)c2C)c1 | 7.17 µM |
| O=C1C[C@@H](O)[C@H](O)[C@@]23O[C@@]12C1(Oc2cccc4cccc(c24)O1)[C@@H]1O[C@@H]1[C@@H]3O | 24.3 µM |
| COc1ccccc1NC(=O)CSC1=NC2(CCCCC2)Nc2ccccc21 | > 50 µM (inactive) |
| O=c1c(OC2O[C@H](CO)[C@H](O)[C@H](O)[C@H]2O)c(-c2ccc(O)cc2)oc2cc(O)cc(O)c12 (stereo partly specified) | > 50 µM (inactive) |
| CCc1ccc(NC(=O)Cc2nnc(-c3ccc4ncccc4c3)o2)cc1 | 25.9 µM |
| Cc1nnc(C(=O)Nc2ccc(C(=O)NCc3ccccc3C)cc2)s1 | 16.2 µM |
| Cc1ccc2cc(CNc3ccccc3)c(=O)n(CC(=O)Nc3ccccc3C)c2c1 | 18.6 µM |
| O=C(Nc1ccccc1)c1nc(-c2cn(Cc3ccc(F)cc3)nn2)no1 | 21 µM |
| CC(=O)c1cccc(NC(=O)c2ccc(-c3csc(C)n3)cc2)c1 | 3.13 µM |
| COc1ccc(OC)c(NC(=O)Cn2c(=O)n(CC3CCC(C(=O)NCCc4ccccc4)CC3)c(=O)c3ccccc32)c1 (stereo unspecified) | 4.61 µM |
